Reference: BindingDB's records for PubMed 33077264 (Menoufia University, 2021)

Biological target: Lysine-specific histone demethylase 1A (Homo sapiens, UniProt O60341)
Assay: Inhibition of N-terminal GST tagged LSD1 (residues 171 - 852) (unknown origin) overexpressed in Escherichia coli using ARTK(Me)2QTARKSTGGKAPRKQLAas substrate incubated for 20 mins by spectrophotometric analysis

IC50: 330 nM
SMILES: Nc1ccccc1NC(=O)c1ccc(CCCC(=O)Nc2ccc(C3CC3N)cc2)cc1 (stereo unspecified)
